One experiment deals with OF1 mice. In words: Maximal electroshock test (MES Test). The class given is in vivo. The following applies: Mus musculus, po; 50 mg/kg, p.o., pre-treatment time −1 h; read-out: %-Protection. The essentials:
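Compound given p.o. (typically 50 mg/kg) 1 h before tonic-clonic convulsions were induced via temporal electrodes (50 Hz, 18 mA, 0.2 s); seizure lasting 3 s or less counted as protection. Read-out is percent protected of five mice per condition; ED50 calculated, blood exposure sampled after shock.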
For the molecule `COCCOC(=O)N(n1c(=O)[nH]c2cc(C(F)(F)F)c([C@H]3CCCO3)cc2c1=O)S(C)(=O)=O` [Example 10.07, Methanesulfonyl-N—((R)-2,4-dioxo-6-tetrahydro-furan-2-yl-7-trifluoromethyl-1,4-dihydro-2H-quinazolin-3-yl)-carbamic acid 2-methoxy-ethyl ester], the responders at 50 mg/kg was 60%.

In the case of `CCn1nccc1-c1cc2c(=O)n(NS(C)(=O)=O)c(=O)[nH]c2cc1C(F)(F)F` [Example 15.0, N-[6-(2-Ethyl-2H-pyrazol-3-yl)-2,4-dioxo-7-trifluoromethyl-1,4-dihydro-2H-quinazolin-3-yl]-methanesulfonamide], the responders at 50 mg/kg was determined as 0%.

Consider `CC(C)c1cc2[nH]c(=O)n(N(C(=O)CCCOCc3ccccc3)S(C)(=O)=O)c(=O)c2cc1-c1ccnn1C` [Example 3.30, N-(4-Benzyloxy-butyryl)-N-[7-isopropyl-6-(2-methyl-2H-pyrazol-3-yl)-2,4-dioxo-1,4-dihydro-2H-quinazolin-3-yl]-methanesulfonamide], for which the responders at 50 mg/kg was determined as 100%.

`CCC(=O)N(n1c(=O)[nH]c2cc(CC)c(-c3ccnn3C)cc2c1=O)S(C)(=O)=O` [Example 2.10, N-[7-Ethyl-6-(2-methyl-2H-pyrazol-3-yl)-2,4-dioxo-1,4-dihydro-2H-quinazolin-3-yl]-N-propionyl-methanesulfonamide]: the responders at 50 mg/kg was determined as 100%.

With `CC(C)C(=O)N(n1c(=O)[nH]c2cc(C(F)(F)F)c(-c3ccnn3C)cc2c1=O)S(C)(=O)=O` [Example 1.02, N-Isobutyryl-N-[6-(2-methyl-2H-pyrazol-3-yl)-2,4-dioxo-7-trifluoromethyl-1,4-dihydro-2H-quinazolin-3-yl]-methanesulfonamide], the responders at 50 mg/kg was found to be 100%.

As to `CCCCC(=O)N(n1c(=O)[nH]c2cc(C(F)(F)F)c(-n3cnnc3)cc2c1=O)S(C)(=O)=O` [Example 9.03, N-(2,4-Dioxo-6-[1,2,4]triazol-4-yl-7-trifluoromethyl-1,4-dihydro-2H-quinazolin-3-yl)-N-pentanoyl-methanesulfonamide], the responders at 50 mg/kg worked out at 20%.

Turning to `COCCOC(=O)N(n1c(=O)[nH]c2cc(C(F)F)c(-c3ccnn3C(C)C)cc2c1=O)S(C)(=O)=O` [Example 6.07, [7-Difluoromethyl-6-(2-isopropyl-2H-pyrazol-3-yl)-2,4-dioxo-1,4-dihydro-2H-quinazolin-3-yl]-methanesulfonyl-carbamic acid 2-methoxy-ethyl ester], the responders at 50 mg/kg worked out at 40%.

In the case of `CCC(=O)N(n1c(=O)[nH]c2cc(C(F)(F)F)c(C(CC)OC)cc2c1=O)S(C)(=O)=O` (stereo not drawn) [Example 11.02, N-[6-(1-Methoxy-propyl)-2,4-dioxo-7-trifluoromethyl-1,4-dihydro-2H-quinazolin-3-yl]-N-propionyl-methanesulfonamide], the responders at 50 mg/kg was found to be 100%.

Turning to `CCCCCCOC(=O)N(n1c(=O)[nH]c2cc(C(C)C)c(-c3ccnn3C)cc2c1=O)S(C)(=O)=O` [Example 3.22, [7-Isopropyl-6-(2-methyl-2H-pyrazol-3-yl)-2,4-dioxo-1,4-dihydro-2H-quinazolin-3-yl]-methanesulfonyl-carbamic acid hexyl ester], the responders at 50 mg/kg was found to be 100%.

For the molecule `CS(=O)(=O)N(C(=O)C1CCCC1)n1c(=O)[nH]c2cc(C(F)(F)F)c(-n3ccnc3)cc2c1=O` [Example 4.07], the responders at 50 mg/kg was found to be 40%.

Consider `COC(=O)N(n1c(=O)c2cc(-c3ccnn3C)c(C(C)C)cc2n(C(=O)OC)c1=O)S(C)(=O)=O` [Example 3.32, 7-Isopropyl-3-(methoxycarbonyl-methanesulfonyl-amino)-6-(2-methyl-2H-pyrazol-3-yl)-2,4-dioxo-3,4-dihydro-2H-quinazoline-1-carboxylic acid methyl ester], for which the responders at 50 mg/kg stood at 80%.

For `CCCCC(=O)N(n1c(=O)[nH]c2cc(C(F)(F)F)c(-c3ccnn3C)cc2c1=O)S(C)(=O)=O` [Example 1.01, N-[6-(2-Methyl-2H-pyrazol-3-yl)-2,4-dioxo-7-trifluoromethyl-1,4-dihydro-2H-guinazolin-3-yl]-N-pentanoyl-methanesulfonamide], the responders at 50 mg/kg came to 40%.

As to `CCCCOC(=O)N(n1c(=O)[nH]c2cc(C(F)(F)F)c(C(CC)OC)cc2c1=O)S(C)(=O)=O` (stereo not drawn) [Example 11.11, Methanesulfonyl-[6-(1-methoxy-propyl)-2,4-dioxo-7-trifluoromethyl-1,4-dihydro-2H-quinazolin-3-yl]-carbamic acid butyl ester], the responders at 50 mg/kg stood at 60%.

As to `CCn1nccc1-c1cc2c(=O)n(NS(C)(=O)=O)c(=O)[nH]c2cc1C(F)F` [Example 14.0, N-[7-Difluoromethyl-6-(2-ethyl-2H-pyrazol-3-yl)-2,4-dioxo-1,4-dihydro-2H-quinazolin-3-yl]-methanesulfonamide], the responders at 50 mg/kg is 0%.

Take `Cc1nccn1-c1cc2c(=O)n(N(C(=O)OCC(C)C)S(C)(=O)=O)c(=O)[nH]c2cc1C(F)(F)F` [Example 7.04, Methanesulfonyl-[6-(2-methyl-imidazol-1-yl)-2,4-dioxo-7-trifluoromethyl-1,4-dihydro-2H-quinazolin-3-yl]-carbamic acid isobutyl ester]: the responders at 50 mg/kg came out at 40%.

With `CCCCOC(=O)N(n1c(=O)[nH]c2cc(C(F)(F)F)c(-c3ccnn3CC)cc2c1=O)S(C)(=O)=O` [Example 15.03, [6-(2-Ethyl-2H-pyrazol-3-yl)-2,4-dioxo-7-trifluoromethyl-1,4-dihydro-2H-quinazolin-3-yl]-methanesulfonyl-carbamic acid butyl ester], the responders at 50 mg/kg amounted to 20%.

For `CCC(OC)c1cc2c(=O)n(N(C(=O)OCCOC)S(C)(=O)=O)c(=O)[nH]c2cc1C(F)(F)F` (stereo not drawn) [Example 11.01, Methanesulfonyl-[6-(1-methoxy-propyl)-2,4-dioxo-7-trifluoromethyl-1,4-dihydro-2H-quinazolin-3-yl]-carbamic acid 2-methoxy-ethyl ester], the responders at 50 mg/kg was determined as 60%.

For `CCCOC(=O)N(n1c(=O)[nH]c2cc(C(C)C)c(-c3ccnn3C)cc2c1=O)S(C)(=O)=O` [Example 3.20, [7-Isopropyl-6-(2-methyl-2H-pyrazol-3-yl)-2,4-dioxo-1,4-dihydro-2H-quinazolin-3-yl]-methanesulfonyl-carbamic acid propyl ester], the responders at 50 mg/kg turned out to be 100%.

The experiment is the same for the next values; noted with them: Mus musculus, po; Dose: 15 mg/kg, p.o. (footnote c), pre-treatment time −1 h; read-out: %-Protection.
For the molecule `CC(C)COC(=O)N(n1c(=O)c2cc(-c3ccnn3C)c(C(C)C)cc2n(C(=O)OCC(C)C)c1=O)S(C)(=O)=O` [Example 3.04, 3-(Isobutoxycarbonyl-methanesulfonyl-amino)-7-isopropyl-6-(2-methyl-2H-pyrazol-3-yl)-2,4-dioxo-3,4-dihydro-2H-quinazoline-1-carboxylic acid isobutyl ester], the responders at 15 mg/kg turned out to be 20%.

For the molecule `COC(=O)N(n1c(=O)[nH]c2cc(C(C)C)c(-c3ccnn3C)cc2c1=O)S(C)(=O)=O` [Example 3.05, [7-Isopropyl-6-(2-methyl-2H-pyrazol-3-yl)-2,4-dioxo-1,4-dihydro-2H-quinazolin-3-yl]-methanesulfonyl-carbamic acid methyl ester], the responders at 15 mg/kg amounted to 60%.

Still in this experiment, the particulars now being: Mus musculus, po; Dose: 25 mg/kg, p.o. (footnote b), pre-treatment time −1 h; read-out: %-Protection.
In the case of `CCc1cc2[nH]c(=O)n(N(C(=O)OCC(C)C)S(C)(=O)=O)c(=O)c2cc1-c1ccnn1C` [Example 2.04, Methanesulfonyl-[7-ethyl-6-(2-methyl-2H-pyrazol-3-yl)-2,4-dioxo-1,4-dihydro-2H-quinazolin-3-yl]-carbamic acid isobutyl ester], the responders at 25 mg/kg amounted to 80%.

Still in this experiment, the particulars now being: Mus musculus; dose of up to 50 mg/kg, p.o., 1 hour prior to induction of convulsions; read-out: %-Protection.
Consider `CCCOC(=O)N(n1c(=O)[nH]c2cc(C(F)(F)F)c([C@H]3CCCO3)cc2c1=O)S(C)(=O)=O` [Methanesulfonyl-[(R)-2,4-Dioxo-6-tetrahydro-furan-2-yl-7-trifluoromethyl-1,4-dihydro-2H-quinazolin-3-yl]carbamic acid propyl ester], for which the responders at 50 mg/kg was 0%.

`CCCCOC(=O)N(n1c(=O)[nH]c2cc(C(F)F)c(-c3ccnn3CC)cc2c1=O)S(C)(=O)=O` [[7-Difluoromethyl-6-(2-ethyl-2H-pyrazol-3-yl)-2,4-dioxo-1,4-dihydro-2H-quinazolin-3-yl]-methanesulfonyl-carbamic acid butyl ester]: the responders at 50 mg/kg turned out to be 0%.

Regarding `CC(C)COC(=O)N(n1c(=O)[nH]c2cc(C(F)F)c(-c3ccnn3C(C)C)cc2c1=O)S(C)(=O)=O` [[7-Difluoromethyl-6-(2-isopropyl-2H-pyrazol-3-yl)-2,4-dioxo-1,4-dihydro-2H-quinazolin-3-yl]-methanesulfonyl-carbamic acid isobutyl ester], the responders at 50 mg/kg was 0%.

Turning to `CCc1cc2[nH]c(=O)n(N(C(=O)C(C)C)S(C)(=O)=O)c(=O)c2cc1-c1ccnn1CC` [N-[7-Ethyl-6-(2-ethyl-2H-pyrazol-3-yl)-2,4-dioxo-1,4-dihydro-2H-quinazolin-3-yl]-N-isobutyryl-methanesulfonamide], the responders at 50 mg/kg stood at 0%.

As to `CCn1nccc1-c1cc2c(=O)n(N(C(C)=O)S(C)(=O)=O)c(=O)[nH]c2cc1C(F)(F)F` [N-Acetyl-N-[6-(2-ethyl-2H-pyrazol-3-yl)-2,4-dioxo-7-trifluoromethyl-1,4-dihydro-2H-quinazolin-3-yl]-methanesulfonamide], the responders at 50 mg/kg is 0%.

For `CCn1nccc1-c1cc2c(=O)n(N(C(=O)CCSC)S(C)(=O)=O)c(=O)[nH]c2cc1C(F)F` [N-[7-Difluoromethyl-6-(2-ethyl-2H-pyrazol-3-yl)-2,4-dioxo-1,4-dihydro-2H-quinazolin-3-yl]-N-(3-methylsulfanyl-propionyl)-methanesulfonamide], the responders at 50 mg/kg was determined as 0%.

For the origin of these results see patent US20130053381A1, “2,4-DIOXO-1,4-DIHYDRO-2H-QUINAZOLIN-3-YL-SULFONAMIDE DERIVATIVES” (NOVARTIS AG, priority 2010, published 2013).
